This note sets out measurements from ChEMBL document CHEMBL5120928, “A New Chemotype of Chemically Tractable Nonsteroidal Estrogens Based on a Thieno[2,3-d]pyrimidine Core” (ACS Med Chem Lett, 2022).

pEC50: −log10 of the molar value.

Assay [1] concerns the target T1, Estrogen receptor (Homo sapiens, UniProt P03372).
T1 sequence (P03372 whole entry): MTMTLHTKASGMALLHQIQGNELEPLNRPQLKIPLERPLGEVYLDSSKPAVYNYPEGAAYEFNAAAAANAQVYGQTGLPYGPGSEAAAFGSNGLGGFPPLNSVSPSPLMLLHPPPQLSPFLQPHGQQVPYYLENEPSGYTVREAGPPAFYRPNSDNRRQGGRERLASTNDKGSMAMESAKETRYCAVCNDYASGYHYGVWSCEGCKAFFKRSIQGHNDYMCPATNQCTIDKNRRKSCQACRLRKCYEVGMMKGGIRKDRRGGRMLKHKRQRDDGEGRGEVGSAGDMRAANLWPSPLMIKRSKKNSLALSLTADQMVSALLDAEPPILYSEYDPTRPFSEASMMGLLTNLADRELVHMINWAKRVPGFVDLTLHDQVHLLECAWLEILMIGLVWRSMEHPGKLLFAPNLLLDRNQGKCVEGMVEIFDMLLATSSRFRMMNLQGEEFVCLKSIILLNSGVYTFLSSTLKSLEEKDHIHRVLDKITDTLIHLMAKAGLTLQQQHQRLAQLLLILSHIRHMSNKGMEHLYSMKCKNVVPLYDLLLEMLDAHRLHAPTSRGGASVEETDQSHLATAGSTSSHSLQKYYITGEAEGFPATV
Description: Agonist activity at RST7-ERalpha (unknown origin) co-expressed with (ERE)TK-luciferase reporter plasmid transfected in human HepG2 cells incubated for 24 hrs by Renilla luciferase based reporter assay

Assay [2] deals with T1, Estrogen receptor. This is another data set of the same source.

Usually pEC50 stands for the EC50 on a negative log10 scale, so that one unit is a factor of ten. Take `Oc1ccc(CNc2nc(Cl)nc3scc(-c4ccccc4)c23)cc1O`: the pEC50 in assay [1] and in assay [2] was below 5.00 each time.
